Tested on: NCI-H929 complex spheroids, viability % test/control
Test: Anticancer human tumor NCI-H929 cell line growth inhibition [RAS];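 also: compound exposure lasted seven days before viability was read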;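 as to viability, T/C: 100% = DMSO vehicle control viability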
Conditions: for IC50: curve of first compound; for viability, T/C: stronger effect = lower value
Method in brief: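 Tumour cells grown as complex spheroids with HUVEC endothelial cells and mesenchymal stem cells, treated with RAS pathway inhibitor combinations. Each agent spans half-log steps from near clinical Cmax, or 10 microM where Cmax is unknown.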

[1] = second compound 0.000949 µM, first compound 0.00316 µM
[2] = second compound 0.000949 µM, first compound 0.01 µM
[3] = second compound 0.000949 µM, first compound 0.0316 µM
[4] = second compound 0.000949 µM, first compound 0.1 µM
[5] = second compound 0.000949 µM, first compound 0.316 µM
[6] = second compound 0.000949 µM, first compound 1 µM
[7] = second compound 0.003 µM, first compound 0.00316 µM
[8] = second compound 0.003 µM, first compound 0.01 µM
[9] = second compound 0.003 µM, first compound 0.0316 µM
[10] = second compound 0.003 µM, first compound 0.1 µM
[11] = second compound 0.003 µM, first compound 0.316 µM
[12] = second compound 0.003 µM, first compound 1 µM
[13] = second compound 0.00949 µM, first compound 0.00316 µM
[14] = second compound 0.00949 µM, first compound 0.01 µM
[15] = second compound 0.00949 µM, first compound 0.0316 µM
[16] = second compound 0.00949 µM, first compound 0.1 µM
[17] = second compound 0.00949 µM, first compound 0.316 µM
[18] = second compound 0.00949 µM, first compound 1 µM
[19] = second compound 0.03 µM, first compound 0.00316 µM
[20] = second compound 0.03 µM, first compound 0.01 µM
[21] = second compound 0.03 µM, first compound 0.0316 µM
[22] = second compound 0.03 µM, first compound 0.1 µM
[23] = second compound 0.03 µM, first compound 0.316 µM
[24] = second compound 0.03 µM, first compound 1 µM
[25] = second compound 0.0949 µM, first compound 0.00316 µM
[26] = second compound 0.0949 µM, first compound 0.01 µM
[27] = second compound 0.0949 µM, first compound 0.0316 µM
[28] = second compound 0.0949 µM, first compound 0.1 µM
[29] = second compound 0.0949 µM, first compound 0.316 µM
[30] = second compound 0.0949 µM, first compound 1 µM
[31] = second compound 0.3 µM, first compound 0.00316 µM
[32] = second compound 0.3 µM, first compound 0.01 µM
[33] = second compound 0.3 µM, first compound 0.0316 µM
[34] = second compound 0.3 µM, first compound 0.1 µM
[35] = second compound 0.3 µM, first compound 0.316 µM
[36] = second compound 0.3 µM, first compound 1 µM

C=CC(=O)Nc1cc(Nc2nccc(-c3cn(C)c4ccccc34)n2)c(OC)cc1N(C)CCN(C)C + CCn1c(-c2cc(N3CCN(C)CC3)cnc2C(C)OC)c2c3cc(ccc31)-c1csc(n1)CC(NC(=O)C1CC1C)C(=O)N1CCCC(N1)C(=O)OCC(C)(C)C2 was tested, and the IC50 (second compound 0.000949 µM) was > 1000 nM, the IC50 (second compound 0.003 µM) was > 1000 nM and the IC50 (second compound 0.00949 µM) was > 1000 nM. For the same compound, the IC50 (second compound 0.03 µM) was 120 nM, the IC50 (second compound 0.0949 µM) was < 3.16 nM and the IC50 (second compound 0.3 µM) was < 3.16 nM. It also gave a viability, T/C [1] of 97.3%, a viability, T/C [2] of 95% and a viability, T/C [3] of 103%. For the same compound, the viability, T/C [4] was 94.9%, the viability, T/C [5] was 105% and the viability, T/C [6] was 103%. For the same compound, the viability, T/C [7] was 87.2%, the viability, T/C [8] was 95.3% and the viability, T/C [9] was 98.8%. For the same compound, the viability, T/C [10] was 98.4%, the viability, T/C [11] was 103% and the viability, T/C [12] was 106%. It also gave a viability, T/C [13] of 108%, a viability, T/C [14] of 112% and a viability, T/C [15] of 112%. It also gave a viability, T/C [16] of 114%, a viability, T/C [17] of 111% and a viability, T/C [18] of 112%. For the same compound, the viability, T/C [19] was 54.3%, the viability, T/C [20] was 46.8% and the viability, T/C [21] was 59.9%. It also gave a viability, T/C [22] of 49.9%, a viability, T/C [23] of 42.2% and a viability, T/C [24] of 9.94%. The viability, T/C [25] was 7.68%, the viability, T/C [26] was 6.73% and the viability, T/C [27] was 7.23%. It also gave a viability, T/C [28] of 6.05%, a viability, T/C [29] of 5.18% and a viability, T/C [30] of 1.96%. It also gave a viability, T/C [31] of 4.84%, a viability, T/C [32] of 4.08% and a viability, T/C [33] of 4.06%. The viability, T/C [34] was 3.89%, the viability, T/C [35] was 3.59% and the viability, T/C [36] was 1.46%.

With CC(Nc1ccc2c(c1)OCCn1cc(N3C(=O)OCC3C(F)F)nc1-2)C(N)=O (stereo unspecified) + CCn1c(-c2cc(N3CCN(C)CC3)cnc2C(C)OC)c2c3cc(ccc31)-c1csc(n1)CC(NC(=O)C1CC1C)C(=O)N1CCCC(N1)C(=O)OCC(C)(C)C2 the IC50 (second compound 0.000949 µM) was 5990 nM, the IC50 (second compound 0.003 µM) was 5260 nM and the IC50 (second compound 0.00949 µM) was 1470 nM. The IC50 (second compound 0.03 µM) was < 31.6 nM, the IC50 (second compound 0.0949 µM) was < 31.6 nM and the IC50 (second compound 0.3 µM) was < 31.6 nM. The viability, T/C [3] was 100%, the viability, T/C [4] was 97.5% and the viability, T/C [5] was 109%. It also gave a viability, T/C [6] of 97.9%, a viability, T/C (second compound 0.000949 µM, first compound 3.16 µM) of 86.2% and a viability, T/C (second compound 0.000949 µM, first compound 10 µM) of 20.9%. The viability, T/C [9] was 94.3%, the viability, T/C [10] was 103% and the viability, T/C [11] was 107%. It also gave a viability, T/C [12] of 102%, a viability, T/C (second compound 0.003 µM, first compound 3.16 µM) of 78.5% and a viability, T/C (second compound 0.003 µM, first compound 10 µM) of 14.2%. It also gave a viability, T/C [15] of 110%, a viability, T/C [16] of 114% and a viability, T/C [17] of 102%. It also gave a viability, T/C [18] of 61.2%, a viability, T/C (second compound 0.00949 µM, first compound 3.16 µM) of 24.8% and a viability, T/C (second compound 0.00949 µM, first compound 10 µM) of 2.76%. It also gave a viability, T/C [21] of 32.1%, a viability, T/C [22] of 9.9% and a viability, T/C [23] of 4.54%. The viability, T/C [24] was 2.25%, the viability, T/C (second compound 0.03 µM, first compound 3.16 µM) was 0.96% and the viability, T/C (second compound 0.03 µM, first compound 10 µM) was 0.2%. The viability, T/C [27] was 1.56%, the viability, T/C [28] was 0.81% and the viability, T/C [29] was 0.54%. For the same compound, the viability, T/C [30] was 0.47%, the viability, T/C (second compound 0.0949 µM, first compound 3.16 µM) was 0.37% and the viability, T/C (second compound 0.0949 µM, first compound 10 µM) was 0.1%. It also gave a viability, T/C [33] of 0.89%, a viability, T/C [34] of 0.73% and a viability, T/C [35] of 0.48%. It also gave a viability, T/C [36] of 0.29%, a viability, T/C (second compound 0.3 µM, first compound 3.16 µM) of 0.33% and a viability, T/C (second compound 0.3 µM, first compound 10 µM) of 0.12%.

Work on O=C(c1ccc(F)c(F)c1Nc1ccc(I)cc1F)N1CC(O)([C@@H]2CCCCN2)C1 + CCn1c(-c2cc(N3CCN(C)CC3)cnc2C(C)OC)c2c3cc(ccc31)-c1csc(n1)CC(NC(=O)C1CC1C)C(=O)N1CCCC(N1)C(=O)OCC(C)(C)C2 yielded an IC50 (second compound 0.000949 µM) of 625 nM, an IC50 (second compound 0.003 µM) of 290 nM and an IC50 (second compound 0.00949 µM) of 69 nM. For the same compound, the IC50 (second compound 0.03 µM) was < 3.16 nM, the IC50 (second compound 0.0949 µM) was < 3.16 nM and the IC50 (second compound 0.3 µM) was < 3.16 nM. The viability, T/C [1] was 93.3%, the viability, T/C [2] was 92.5% and the viability, T/C [3] was 103%. For the same compound, the viability, T/C [4] was 108%, the viability, T/C [5] was 97.3% and the viability, T/C [6] was 17.4%. The viability, T/C [7] was 90.8%, the viability, T/C [8] was 101% and the viability, T/C [9] was 111%. For the same compound, the viability, T/C [10] was 119%, the viability, T/C [11] was 45.5% and the viability, T/C [12] was 7.02%. It also gave a viability, T/C [13] of 110%, a viability, T/C [14] of 117% and a viability, T/C [15] of 113%. The viability, T/C [16] was 19.9%, the viability, T/C [17] was 6.27% and the viability, T/C [18] was 3.63%. It also gave a viability, T/C [19] of 31.8%, a viability, T/C [20] of 15.7% and a viability, T/C [21] of 4.87%. For the same compound, the viability, T/C [22] was 2.83%, the viability, T/C [23] was 2.77% and the viability, T/C [24] was 2.07%. The viability, T/C [25] was 4.34%, the viability, T/C [26] was 3.41% and the viability, T/C [27] was 1.75%. For the same compound, the viability, T/C [28] was 1.48%, the viability, T/C [29] was 1.32% and the viability, T/C [30] was 0.89%. For the same compound, the viability, T/C [31] was 3%, the viability, T/C [32] was 1.97% and the viability, T/C [33] was 1.19%. For the same compound, the viability, T/C [34] was 1.05%, the viability, T/C [35] was 1.12% and the viability, T/C [36] was 0.68%.

Reference: PubChem BioAssay AID2060884 (Molecular Pharmacology Branch, DTP, NCI, 2025)
